Laboratory results published in PubChem BioAssay AID1053202 (The Scripps Research Institute Molecular Screening Center, 2014).
The source made the active and inactive calls.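 Rule for the calls: active = Ki at or below 10 µM; inactive = Ki above 10 µM.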

Target: Fibrinogen beta chain (Homo sapiens) (UniProt P02675)
Test: displacement of Tn6 from fibrin D-dimer/E complex – biochemical, fluorescence polarization, Ki, set 1, late-stage follow-up (AID 1053202)
Details: Purified DD(E), TRITC-Tn6 peptide displacement

Sequence of Fibrinogen beta chain (Homo sapiens) (P02675 whole entry, looked up): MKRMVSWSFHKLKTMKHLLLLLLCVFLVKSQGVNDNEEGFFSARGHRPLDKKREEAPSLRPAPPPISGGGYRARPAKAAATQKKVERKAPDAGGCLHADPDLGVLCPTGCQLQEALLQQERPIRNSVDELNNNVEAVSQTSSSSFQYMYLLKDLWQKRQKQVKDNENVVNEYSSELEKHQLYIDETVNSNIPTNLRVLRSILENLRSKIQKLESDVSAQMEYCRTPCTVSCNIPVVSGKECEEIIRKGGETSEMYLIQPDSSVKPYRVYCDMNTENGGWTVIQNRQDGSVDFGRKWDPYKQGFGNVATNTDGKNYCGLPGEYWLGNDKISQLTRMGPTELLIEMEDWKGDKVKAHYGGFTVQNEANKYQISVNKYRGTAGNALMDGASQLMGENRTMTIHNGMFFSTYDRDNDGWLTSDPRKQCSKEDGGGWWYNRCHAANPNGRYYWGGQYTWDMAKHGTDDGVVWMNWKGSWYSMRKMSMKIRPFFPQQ

SMILES | Ki (protein 2 µM, probe 0.1 µM) | Ki (protein 1 µM, probe 0.05 µM)
CCn1c(CSc2nnnn2C(C)C)nc2cc(C(=O)O)ccc21 | inactive | –
CCn1c(CSc2ncnc3sc(C)c(C)c23)nc2cc(C(=O)O)ccc21 | inactive | –
CCn1c(CSc2nncn2C)nc2cc(C(=O)O)ccc21 | 5.01 µM | –
CCn1c(CSc2nnc(COc3ccc(OC)cc3)n2-c2ccccc2F)nc2cc(C(=O)O)ccc21 | 5.6 µM | –
CCn1c(CSc2ncn[nH]2)nc2cc(C(=O)O)ccc21 | – | inactive
CCn1c(CSc2ccc(NC(C)=O)cc2)nc2cc(C(=O)O)ccc21 | inactive | –
OCCn1c(CSc2nnc(-c3ccc4c(c3)OCO4)o2)nc2ccc(Cl)cc21 | – | inactive
CCCCn1c(CSc2nnc(-c3ccco3)n2C)nc2cc(S(N)(=O)=O)ccc21 | inactive | –
CCn1c(CSc2nnc(-c3ccncc3)n2CCOC)nc2cc(C(=O)O)ccc21 | – | 3.75 µM
CCn1c(CSc2nccn2C)nc2cc(C(=O)O)ccc21 | – | inactive
C=CCNc1nnc(SCc2nc3cc(S(=O)(=O)N(C)C)ccc3n2CCC)s1 | inactive | –
CCCCn1c(CSc2n[nH]c(=O)n2CCC)nc2cc(S(N)(=O)=O)ccc21 | inactive | –
CCn1c(CSc2nc3sc4c(c3c(=O)n2CCOC)CCCC4)nc2cc(C(=O)O)ccc21 | inactive | –
CCn1c(CSc2nnc(N)s2)nc2cc(F)ccc21 | 2.3 µM | –
C=CCn1c(SCc2nc3ccc(Cl)cc3n2CCO)nnc1-c1ccc(Cl)cc1 | inactive | –
OCCn1c(CSc2nc3ccccc3o2)nc2ccc(Cl)cc21 | inactive | –
COc1ccc2nc(SCc3nc4ccc(Cl)cc4n3CCO)[nH]c2c1 | inactive | –
CCn1c(CSc2nnc(-c3ccoc3C)o2)nc2cc(S(=O)(=O)N(C)C)ccc21 | inactive | –
Nc1nnc(SCc2nc3ccccc3[nH]2)s1 | inactive | –

Continued, values first:

Ki (protein 2 µM, probe 0.1 µM) | Ki (protein 1 µM, probe 0.05 µM) | SMILES
inactive | – | CCn1c(CSc2nc3ccccc3c(=O)n2-c2ccccc2F)nc2cc(C(=O)O)ccc21
– | 5.1 µM | CCn1c(CSc2nnc(-c3ccncc3)n2C)nc2cc(C(=O)O)ccc21
– | inactive | CCn1c(CSc2nc3ccccc3[nH]2)nc2cc(C(=O)O)ccc21
inactive | – | CCCCn1c(CSc2nc3ccccc3[nH]2)nc2cc(S(N)(=O)=O)ccc21
5.1 µM | – | CCn1c(CSc2nccn2C)nc2cc(S(=O)(=O)N3CCCCC3)ccc21
inactive | – | CCn1c(CSc2n[nH]c(N)n2)nc2cc(F)ccc21
2.46 µM | – | CCn1c(CSc2nc(C3CC3)n(-c3ccccc3)n2)nc2cc(S(=O)(=O)N(C)C)ccc21
inactive | – | CCn1c(CSc2n[nH]c(-c3ccccc3)n2)nc2cc(S(=O)(=O)N3CCCCC3)ccc21
inactive | – | Nn1cc(-c2ccccc2)nc1SCc1nc2ccc(Cl)cc2n1CCO
inactive | – | CCCCn1c(CSc2nnc(-c3ccccc3F)n2N)nc2cc(S(N)(=O)=O)ccc21
2.82 µM | – | CCn1c(CSc2nnc(Nc3ccccc3F)s2)nc2cc(C(=O)O)ccc21
4.57 µM | – | CCn1c(CSc2nc3ccccc3s2)nc2cc(C(=O)O)ccc21
inactive | – | CCn1c(CSc2nnnn2-c2ccccc2)nc2cc(C(=O)O)ccc21
– | 5.11 µM | CCn1c(CSc2n[nH]c(N)n2)nc2cc(C(=O)O)ccc21
inactive | – | CCCCn1c(CSc2nnc(-c3ccccc3F)n2C)nc2cc(S(N)(=O)=O)ccc21
5.1 µM | – | CCCn1c(SCc2nc3cc(S(=O)(=O)N4CCOCC4)ccc3n2CCC)n[nH]c1=O
1.34 µM | – | CCCn1c(SCc2nc3cc(C(=O)O)ccc3n2CC)nc2ccccc2c1=O
– | 2.3 µM | CCn1c(CSc2nnc3ccccn23)nc2cc(C(=O)O)ccc21
